The format of this series is physicochemical. The method, then: Thermogravimetric analysis (TGA) was performed using a Mettler TGA 2 equipped with a 34 position auto-sampler. The instrument was calibrated for energy and temperature using certified Isoderm and Nickel. 10.01 mg of the ceramide NP powder of Example 1 was added to a pinhole aluminum pan and heated from 20° C. to 800° C. at 10° C./min to perform thermogravimetric analysis. The TGA results of the ceramide NP powder of Example 1 are shown in FIG. 7, and the TGA results of the ceramide NP powder of Comparative Example 1 are shown in FIG. 8. The TGA results of ceramide NP powder of Example 1 and the ceramide NP powder of Comparative Example 1 are compared to each other by being arranged to overlap each other in FIG. 9.

In the case of `CCCCCCCC/C=C\CCCCCCCC(=O)N[C@@H](CO)[C@H](O)[C@H](O)CCCCCCCCCCCCCC` [Example 1, ceramide NP], the mass remaining result was “about 95%” and the “stability compared with ceramide NP powder of Comparative Example 1” value is reported as “more stable”. The “temperature at which decomposition began (no weight loss until then)” value (TGA, heated from 20° C. to 800° C. at 10° C./min) is 200 °C.

On to “ceramide NP [Comparative Example 1, reference compound]”, for which the mass remaining result is listed as “about 95%”.

Values taken from US20260283927A1, “CRYSTALLINE FORM OF CERAMIDE NP AND COMPOSITION INCLUDING THE SAME” (CRODA KOREA LTD., priority 2023, published 2026).
